This is an account of results in BindingDB's records for PubMed 39326269 (Second Military Medical University).

Where a SMILES comes first, the peptide text is derived from it. Bridges are numbered along the chain shown (N, C = ends). [ ]: non-standard residue; d: D form. S5 = C=CCCC[C@](C)(N)C(=O)O

Test [1] in a line: Inhibition of pERK in human ASPC1 cells measured after 18 hr.
Test [2] in a line: Inhibition of pERK in human ASPC1 cells measured after 1 hr.
In test [3] the target is GTPase KRas (Homo sapiens, UniProt P01116). As to the kind of experiment: Binding affinity to KRas G12C mutant (unknown origin) assessed as dissociation constant by biolayer interferometry assay.
GTPase KRas, sequence (P01116 whole entry G12C): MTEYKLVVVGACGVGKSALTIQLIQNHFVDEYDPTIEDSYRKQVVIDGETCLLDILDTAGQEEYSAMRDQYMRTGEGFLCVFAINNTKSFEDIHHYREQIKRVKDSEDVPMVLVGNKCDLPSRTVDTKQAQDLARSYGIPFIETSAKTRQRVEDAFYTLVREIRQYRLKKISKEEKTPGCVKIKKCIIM

In the case of `CC[C@H](C)[C@@H]1NC(=O)[C@H](Cc2ccc(O)cc2)NC(=O)[C@H](CC(C)C)NC(=O)[C@@H]2CCCN2C(=O)[C@H](NC(=O)[C@@H](CCCNC(=N)N)NC(=O)[C@@H](CCCNC(=N)N)NC(=O)[C@@H](CCCNC(=N)N)NC(=O)[C@@H](CCCNC(=N)N)NC(=O)[C@H](CCCCN=[N+]=[N-])NC(C)=O)CSSC[C@@H](C(=O)N[C@H](CCCNC(=N)N)C(=O)N[C@H](CCCNC(=N)N)C(=O)N[C@H](CCCNC(=N)N)C(=O)N[C@H](CCCNC(=N)N)C(N)=O)NC(=O)[C@H](C(C)C)NC(=O)[C@@H]2CCCN2C(=O)[C@H](CC(=O)O)NC(=O)[C@H](Cc2ccc(O)cc2)NC(=O)[C@](C)(CO)NC1=O`, the EC50 came out at 1500 nM in test [1] and 1200 nM in test [2]. Regarding `CC[C@H](C)[C@H](NC(=O)CNC(=O)[C@H](Cc1ccccc1)NC(C)=O)C(=O)N[C@@]1(C)CCCC=CCCC[C@@](C)(C(=O)N[C@@H](CC(C)C)C(=O)N[C@@H](CCCCN)C(=O)N[C@H](C(N)=O)[C@@H](C)O)NC(=O)[C@H](CC(N)=O)NC(=O)[C@H]([C@@H](C)O)NC(=O)[C@H](CC(C)C)NC1=O` (Ac-FGI[S5]LTN[S5]LKT-NH2; staple 4-8), in test [3], the Kd was determined as 7670 nM.
